± gives the expanded uncertainty stated by the source.
Legend:
[1] = xn = mol fraction of the nth substance listed; details: 101 kPa, Liquid, Vibrating tube method
[2] = excess molar enthalpy (molar enthalpy of mixing); xn = mol fraction of the nth substance listed; details: 101 kPa, Liquid, Calvet calorimetry

## CCCOC(C)=O [propyl ethanoate] + CCCCCCCC
[1]; 291.15 K, x1 = 0.012
  mass density: 705.7 ± 0.3 kg/m3
[1]; 291.15 K, x1 = 0.0405
  mass density: 708.9 ± 0.3 kg/m3
[1]; 291.15 K, x1 = 0.1465
  mass density: 721.9 ± 0.3 kg/m3
[1]; 291.15 K, x1 = 0.1905
  mass density: 727.8 ± 0.3 kg/m3
[1]; 291.15 K, x1 = 0.2679
  mass density: 738.6 ± 0.3 kg/m3
[1]; 291.15 K, x1 = 0.3573
  mass density: 752.2 ± 0.3 kg/m3
[1]; 291.15 K, x1 = 0.4206
  mass density: 762.5 ± 0.3 kg/m3
[1]; 291.15 K, x1 = 0.4808
  mass density: 772.7 ± 0.3 kg/m3
[1]; 291.15 K, x1 = 0.5357
  mass density: 782.6 ± 0.3 kg/m3
[1]; 291.15 K, x1 = 0.6206
  mass density: 798.8 ± 0.3 kg/m3
[1]; 291.15 K, x1 = 0.6668
  mass density: 808.1 ± 0.3 kg/m3
[1]; 291.15 K, x1 = 0.7082
  mass density: 816.9 ± 0.3 kg/m3
[1]; 291.15 K, x1 = 0.7644
  mass density: 829.3 ± 0.3 kg/m3
[1]; 291.15 K, x1 = 0.8181
  mass density: 841.9 ± 0.3 kg/m3
[1]; 291.15 K, x1 = 0.8638
  mass density: 853.1 ± 0.3 kg/m3
[1]; 291.15 K, x1 = 0.9109
  mass density: 865.1 ± 0.4 kg/m3
[1]; 291.15 K, x1 = 0.9798
  mass density: 883.9 ± 0.4 kg/m3
[1]; 291.15 K, x1 = 1
  mass density: 889.6 ± 0.2 kg/m3
[1]; 298.15 K, x1 = 0.0149
  mass density: 700.3 ± 0.3 kg/m3
[1]; 298.15 K, x1 = 0.0603
  mass density: 705.4 ± 0.3 kg/m3
[1]; 298.15 K, x1 = 0.1039
  mass density: 710.8 ± 0.3 kg/m3
[1]; 298.15 K, x1 = 0.2154
  mass density: 725.3 ± 0.3 kg/m3
[1]; 298.15 K, x1 = 0.2536
  mass density: 730.6 ± 0.3 kg/m3
[1]; 298.15 K, x1 = 0.3283
  mass density: 741.5 ± 0.3 kg/m3
[1]; 298.15 K, x1 = 0.3895
  mass density: 751.1 ± 0.3 kg/m3
[1]; 298.15 K, x1 = 0.4733
  mass density: 765 ± 0.3 kg/m3
[1]; 298.15 K, x1 = 0.5382
  mass density: 776.6 ± 0.3 kg/m3
[1]; 298.15 K, x1 = 0.5953
  mass density: 787.3 ± 0.3 kg/m3
[1]; 298.15 K, x1 = 0.6543
  mass density: 799 ± 0.3 kg/m3
[1]; 298.15 K, x1 = 0.7043
  mass density: 809.4 ± 0.3 kg/m3
[1]; 298.15 K, x1 = 0.7628
  mass density: 822.2 ± 0.3 kg/m3
[1]; 298.15 K, x1 = 0.8145
  mass density: 834.2 ± 0.3 kg/m3
[1]; 298.15 K, x1 = 0.862
  mass density: 845.6 ± 0.3 kg/m3
[1]; 298.15 K, x1 = 0.9221
  mass density: 860.9 ± 0.4 kg/m3
[1]; 298.15 K, x1 = 0.9349
  mass density: 864.3 ± 0.4 kg/m3
[1]; 298.15 K, x1 = 1
  mass density: 882.5 ± 0.2 kg/m3
[1]; 318.15 K, x1 = 0.044
  mass density: 687.1 ± 0.3 kg/m3
[1]; 318.15 K, x1 = 0.0919
  mass density: 692.5 ± 0.3 kg/m3
[1]; 318.15 K, x1 = 0.1675
  mass density: 701.7 ± 0.3 kg/m3
[1]; 318.15 K, x1 = 0.2438
  mass density: 711.7 ± 0.3 kg/m3
[1]; 318.15 K, x1 = 0.3148
  mass density: 721.6 ± 0.3 kg/m3
[1]; 318.15 K, x1 = 0.3866
  mass density: 732.3 ± 0.3 kg/m3
[1]; 318.15 K, x1 = 0.4471
  mass density: 741.8 ± 0.3 kg/m3
[1]; 318.15 K, x1 = 0.5188
  mass density: 753.7 ± 0.3 kg/m3
[1]; 318.15 K, x1 = 0.5695
  mass density: 762.8 ± 0.3 kg/m3
[1]; 318.15 K, x1 = 0.6293
  mass density: 773.9 ± 0.3 kg/m3
[1]; 318.15 K, x1 = 0.6793
  mass density: 783.8 ± 0.3 kg/m3
[1]; 318.15 K, x1 = 0.7422
  mass density: 796.8 ± 0.3 kg/m3
[1]; 318.15 K, x1 = 0.7792
  mass density: 804.8 ± 0.3 kg/m3
[1]; 318.15 K, x1 = 0.8435
  mass density: 819.5 ± 0.3 kg/m3
[1]; 318.15 K, x1 = 0.8743
  mass density: 826.9 ± 0.3 kg/m3
[1]; 318.15 K, x1 = 0.9284
  mass density: 840.5 ± 0.4 kg/m3
[1]; 318.15 K, x1 = 1
  mass density: 859.8 ± 0.2 kg/m3
[1]; 328.15 K, x1 = 0.0249
  mass density: 676.7 ± 0.3 kg/m3
[1]; 328.15 K, x1 = 0.1032
  mass density: 685.4 ± 0.3 kg/m3
[1]; 328.15 K, x1 = 0.1801
  mass density: 694.6 ± 0.3 kg/m3
[1]; 328.15 K, x1 = 0.2554
  mass density: 704.4 ± 0.3 kg/m3
[1]; 328.15 K, x1 = 0.3244
  mass density: 713.9 ± 0.3 kg/m3
[1]; 328.15 K, x1 = 0.4
  mass density: 725 ± 0.3 kg/m3
[1]; 328.15 K, x1 = 0.4761
  mass density: 737 ± 0.3 kg/m3
[1]; 328.15 K, x1 = 0.5341
  mass density: 746.7 ± 0.3 kg/m3
[1]; 328.15 K, x1 = 0.5975
  mass density: 757.9 ± 0.3 kg/m3
[1]; 328.15 K, x1 = 0.6603
  mass density: 769.7 ± 0.3 kg/m3
[1]; 328.15 K, x1 = 0.7147
  mass density: 780.7 ± 0.3 kg/m3
[1]; 328.15 K, x1 = 0.7686
  mass density: 791.9 ± 0.3 kg/m3
[1]; 328.15 K, x1 = 0.8149
  mass density: 802.1 ± 0.3 kg/m3
[1]; 328.15 K, x1 = 0.8651
  mass density: 813.8 ± 0.3 kg/m3
[1]; 328.15 K, x1 = 0.9233
  mass density: 828 ± 0.3 kg/m3
[1]; 328.15 K, x1 = 0.9404
  mass density: 832.4 ± 0.4 kg/m3
[1]; 328.15 K, x1 = 1
  mass density: 848.3 ± 0.2 kg/m3
[2]; 291.15 K, x1 = 0.0879
  excess molar enthalpy: 0.457 ± 0.007 kJ/mol
[2]; 291.15 K, x1 = 0.1784
  excess molar enthalpy: 0.765 ± 0.008 kJ/mol
[2]; 291.15 K, x1 = 0.2664
  excess molar enthalpy: 1.014 ± 0.009 kJ/mol
[2]; 291.15 K, x1 = 0.3472
  excess molar enthalpy: 1.175 ± 0.01 kJ/mol
[2]; 291.15 K, x1 = 0.4208
  excess molar enthalpy: 1.265 ± 0.011 kJ/mol
[2]; 291.15 K, x1 = 0.486
  excess molar enthalpy: 1.298 ± 0.011 kJ/mol
[2]; 291.15 K, x1 = 0.5436
  excess molar enthalpy: 1.292 ± 0.011 kJ/mol
[2]; 291.15 K, x1 = 0.5927
  excess molar enthalpy: 1.257 ± 0.011 kJ/mol
[2]; 291.15 K, x1 = 0.618
  excess molar enthalpy: 1.219 ± 0.01 kJ/mol
[2]; 291.15 K, x1 = 0.6703
  excess molar enthalpy: 1.139 ± 0.01 kJ/mol
[2]; 291.15 K, x1 = 0.7256
  excess molar enthalpy: 1.02 ± 0.009 kJ/mol
[2]; 291.15 K, x1 = 0.7843
  excess molar enthalpy: 0.862 ± 0.008 kJ/mol
[2]; 291.15 K, x1 = 0.8412
  excess molar enthalpy: 0.686 ± 0.008 kJ/mol
[2]; 291.15 K, x1 = 0.8983
  excess molar enthalpy: 0.469 ± 0.007 kJ/mol
[2]; 291.15 K, x1 = 0.9546
  excess molar enthalpy: 0.233 ± 0.006 kJ/mol
[2]; 298.15 K, x1 = 0.0883
  excess molar enthalpy: 0.429 ± 0.006 kJ/mol
[2]; 298.15 K, x1 = 0.1747
  excess molar enthalpy: 0.727 ± 0.008 kJ/mol
[2]; 298.15 K, x1 = 0.2568
  excess molar enthalpy: 0.966 ± 0.009 kJ/mol
[2]; 298.15 K, x1 = 0.3398
  excess molar enthalpy: 1.13 ± 0.01 kJ/mol
[2]; 298.15 K, x1 = 0.4117
  excess molar enthalpy: 1.219 ± 0.01 kJ/mol
[2]; 298.15 K, x1 = 0.4788
  excess molar enthalpy: 1.257 ± 0.011 kJ/mol
[2]; 298.15 K, x1 = 0.5346
  excess molar enthalpy: 1.249 ± 0.01 kJ/mol
[2]; 298.15 K, x1 = 0.5849
  excess molar enthalpy: 1.219 ± 0.01 kJ/mol
[2]; 298.15 K, x1 = 0.6055
  excess molar enthalpy: 1.199 ± 0.01 kJ/mol
[2]; 298.15 K, x1 = 0.655
  excess molar enthalpy: 1.139 ± 0.01 kJ/mol
[2]; 298.15 K, x1 = 0.7074
  excess molar enthalpy: 1.049 ± 0.009 kJ/mol
[2]; 298.15 K, x1 = 0.7607
  excess molar enthalpy: 0.929 ± 0.009 kJ/mol
[2]; 318.15 K, x1 = 0.0767
  excess molar enthalpy: 0.394 ± 0.007 kJ/mol
[2]; 318.15 K, x1 = 0.1676
  excess molar enthalpy: 0.74 ± 0.008 kJ/mol
[2]; 318.15 K, x1 = 0.2591
  excess molar enthalpy: 1.018 ± 0.009 kJ/mol
[2]; 318.15 K, x1 = 0.3352
  excess molar enthalpy: 1.179 ± 0.01 kJ/mol
[2]; 318.15 K, x1 = 0.4086
  excess molar enthalpy: 1.276 ± 0.011 kJ/mol
[2]; 318.15 K, x1 = 0.4719
  excess molar enthalpy: 1.304 ± 0.011 kJ/mol
[2]; 318.15 K, x1 = 0.5293
  excess molar enthalpy: 1.296 ± 0.011 kJ/mol
[2]; 318.15 K, x1 = 0.5791
  excess molar enthalpy: 1.257 ± 0.011 kJ/mol
[2]; 318.15 K, x1 = 0.5859
  excess molar enthalpy: 1.248 ± 0.011 kJ/mol
[2]; 318.15 K, x1 = 0.6316
  excess molar enthalpy: 1.191 ± 0.01 kJ/mol
[2]; 318.15 K, x1 = 0.6848
  excess molar enthalpy: 1.108 ± 0.01 kJ/mol
[2]; 318.15 K, x1 = 0.7377
  excess molar enthalpy: 1.001 ± 0.009 kJ/mol
[2]; 318.15 K, x1 = 0.7936
  excess molar enthalpy: 0.864 ± 0.008 kJ/mol
[2]; 318.15 K, x1 = 0.8521
  excess molar enthalpy: 0.682 ± 0.008 kJ/mol
[2]; 318.15 K, x1 = 0.9064
  excess molar enthalpy: 0.476 ± 0.007 kJ/mol
[2]; 318.15 K, x1 = 0.9555
  excess molar enthalpy: 0.249 ± 0.007 kJ/mol

— the NIST ThermoML archive (doi:10.1021/je3011979)
